Patent US20110195845A1, “Constructs for Expressing Herbicide Tolerance Genes, Related Plants, and Related Trait Combinations” (Dow AgroSciences LLC, priority 2008, published 2011)

Assays:
[1] = tested on: Wildtype Arabidopsis; experiment: Arabidopsis response to glufosinate applied postemergence; format: in vivo, Arabidopsis thaliana; conditions: for % Injury Ave / individuals with % Injury 20-40% / individuals with % Injury <20% / individuals with % Injury >40%: 2 WAT
Description: Seven days after planting (DAP) and again 11 DAP, T1 plants (cotyledon and 2-4-1f stage, respectively) were sprayed with a 0.016% solution of 2,4-D herbicide (456 g ae/L 2,4-D Amine 4, Dow AgroSciences LLC, Indianapolis, Ind.) at a spray volume of 10 ml/tray (703 L/ha) using a DeVilbiss compressed air spray tip to deliver an effective rate of 50 g ae/ha 2,4-D DMA per application. Survivors (plants actively growing) were identified 4-7 days after the final spraying and transplanted individually into 3-inch pots prepared with potting media (Metro Mix 360). Transplanted plants were covered with humidity domes for 3-4 days and placed in a 22° C. growth chamber as before or moved to directly to the greenhouse. Domes were subsequently removed and plants reared in the greenhouse (22±5° C., 50±30% RH, 14 h light:10 dark, minimum 500 μE/m^2s^1 natural+supplemental light) at least 1 day prior to testing for the ability of DSM-2 (v2) to provide glufosinate herbicide resistance.
T1 plants were then randomly assigned to various rates of glufosinate. For Arabidopsis 140 g ai/ha glufosinate is an effective dose to distinguish sensitive plants from ones with meaningful levels of resistance. Elevated rates were also applied to determine relative levels of resistance (280, 560, or 1120 g ai/ha).
All glufosinate herbicide applications were applied by track sprayer in a 187 L/ha spray volume. The commercial Liberty™ formulation (200 g ai/L, Bayer Crop Science, Research Triangle Park, N.C.).
The first Arabidopsis transformations were conducted using DSM-2 (v2) (plant optimized gene). T1 transformants were first selected from the background of untransformed seed using a 2,4-D DMA selection scheme. Over 100,000 T1 seed were screened and 260 2,4-D resistant plants (AAD-12 gene) were identified, equating to a transformation/selection frequency of 0.26% which is slightly higher than the normal range of selection frequency of constructs where AAD-12+2,4-D are used for selection. T1 plants selected above were subsequently transplanted to individual pots and sprayed with various rates of commercial glufosinate herbicide. Table 10 compares the response of DSM-2 (v2) and control genes to impart glufosinate resistance to Arabidopsis T1 transformants. Response is presented in terms of % visual injury 2 WAT. […] Since each T1 is an independent transformation event, one can expect significant variation of individual T1 responses within a given rate. An arithmetic mean and standard deviation is presented for each treatment. Untransformed-wildtype Arabidopsis served as a glufosinate sensitive control. The DSM-2 (v2) gene imparted herbicide resistance to individual T1 Arabidopsis plants. Within a given treatment, the level of plant response varied greatly and can be attributed to the fact each plant represents an independent transformation event. Of important note, at above 140 g ai/ha glufosinate, there were individuals that were unaffected while some were severely affected.

[2] = tested on: WT corn (5× H751× Hi II control plants); experiment: Corn response to glufosinate applied postemergence; format: in vivo; conditions: 14DAT
From the text: The seed from the cross of T1 DSM-2 (v2)×5× H751 were planted into 4-inch pots containing Metro Mix media and at 2 leaf stage were sprayed in the track sprayer set to 187 L/ha at 560 g ai/ha glufosinate to remove nulls. At 7 DAT nulls were removed and resistant plants were sprayed in the track sprayer as above at the following rates: 0, 560, 1120, 2240, and 4480 g ai/ha glufosinate. Plants were graded at 3 and 14 DAT and compared to 5× H751× Hi II control plants.

[3] = tested on: Escherichia coli BL21-Star (DE3) with empty pET vector; experiment: Complementation of cell growth on glufosinate, empty pET vector (control); format: cell-based; set-up: key: +++ = Heavy Lawn Growth; ++ = Light lawn growth; + = patchy lawn growth; −− = No Growth; conditions: 24 hrs @28 C, 20 uM IPTG
From the text: A pET28a(+) expression plasmid containing PAT (v3) was constructed as a positive control. PAT (v3) was cloned as an NcoI-SacI fragment into corresponding restriction sites of pDAB779. Positive clones containing the PAT (v3) gene fragment were verified via restriction enzyme digestion. This construct was labeled as pDAB4434.
The plasmids, pDAB4434, pDAB4412, and an empty pET vector (control) were transformed into Escherichia coli BL21-Star (DE3) bacterial cells. Expression cultures were initiated with 10-200 freshly transformed colonies into 250 mL LB medium containing 50 μg/ml antibiotic and 75 μM IPTG (isopropyl-[…]). The cultures were grown at 28° C. for 24 hours at 180-200 rpm. Five microliters of the culture was inoculated onto a complex media control and minimal media containing incrementally increasing concentrations of glufosinate and 20 μM IPTG. The cultures were dispersed evenly over the plates and incubated at 28° C. for 24 hours.

[4] = tested on: PAT (pDAS1942) corn; experiment: T2 corn response to glufosinate applied postemergence; format: in vivo; conditions: 14DAT
[5] = 140 g ai/ha glufosinate postemergence
[6] = 280 g ai/ha glufosinate postemergence
[7] = 560 g ai/ha glufosinate postemergence
[8] = 1120 g ai/ha glufosinate postemergence
[9] = 2240 g ai/ha glufosinate postemergence
[10] = 4480 g ai/ha glufosinate postemergence

## CP(=O)(O)CCC(N)C(=O)O (stereo not shown) [glufosinate]
[1]; [5]
  % Injury Ave: 98.0%
  individuals with % Injury 20-40%: 0
  individuals with % Injury <20%: 0
  individuals with % Injury >40%: 10
[1]; [6]
  % Injury Ave: 100.0%
  individuals with % Injury 20-40%: 0
  individuals with % Injury <20%: 0
  individuals with % Injury >40%: 10
[1]; [7]
  % Injury Ave: 100.0%
  individuals with % Injury 20-40%: 0
  individuals with % Injury <20%: 0
  individuals with % Injury >40%: 10
[1]; [8]
  % Injury Ave: 100.0%
  individuals with % Injury 20-40%: 0
  individuals with % Injury <20%: 0
  individuals with % Injury >40%: 10
[1]; Arabidopsis
  effective dose to distinguish sensitive plants from ones with meaningful levels of resistance: 140 g ai/ha
[2]; [7]
  % Injury Ave: 100%
  individuals with % Injury 20-40%: 0
  individuals with % Injury <20%: 0
  individuals with % Injury >40%: 4
[2]; [8]
  % Injury Ave: 100%
  individuals with % Injury 20-40%: 0
  individuals with % Injury <20%: 0
  individuals with % Injury >40%: 4
[2]; [9]
  % Injury Ave: 100%
  individuals with % Injury 20-40%: 0
  individuals with % Injury <20%: 0
  individuals with % Injury >40%: 4
[2]; [10]
  % Injury Ave: 100%
  individuals with % Injury 20-40%: 0
  individuals with % Injury <20%: 0
  individuals with % Injury >40%: 4
[3]; 250 μg/ml BASTA
  bacterial growth on minimal media: −−
[3]; 500 μg/ml BASTA
  bacterial growth on minimal media: −−
[3]; 1000 μg/ml BASTA
  bacterial growth on minimal media: −−
[3]; 2000 μg/ml BASTA
  bacterial growth on minimal media: −−
[3]; 4000 μg/ml BASTA
  bacterial growth on minimal media: −−
[4]; [7]
  % Injury Ave: 6%
  individuals with % Injury <20%: 4
[4]; [8]
  individuals with % Injury >40%: 3
[4]; [9]
  % Injury Ave: 25%
  individuals with % Injury 20-40%: 1
  individuals with % Injury <20%: 2
  individuals with % Injury >40%: 1
[4]; [10]
  individuals with % Injury <20%: 0
